Active and inactive are the calls of the source. The rule behind the calls is not given here.
How the values were obtained:
HCT-116 [1] = assay: Induction of apoptosis in human HCT-116 cells assessed as early apoptotic cells at 4 uM measured after 2 days in presence of irinotecan by AnnexinV-FITC/PI staining based analysis (reference value: 14.4%); assay type: functional; details: time 2 day
HCT-116 [2] = assay: Inhibition of colony formation in human HCT-116 cells preincubated for 1 hr followed by exposure to 2 Gy gamma irradiation and measured after 1 week by crystal violet staining based […] assay; assay type: functional, cell-based; details: HCT-116, light or radiation study
MCF7 [3] = assay: Synergistic antiproliferative activity against human MCF7 cells assessed as fold increase in etoposide IC50 at 200 nM measured after 6 days by MTT assay; assay type: functional; details: time 6 day
MCF7 [4] = assay: Synergistic antiproliferative activity against human MCF7 cells assessed as combination index at […] measured after 6 days in presence etoposide by MTT assay; assay type: functional; details: dose lower 100 µM; time 6 day
HCT-116 [5] = assay: Induction of apoptosis in human HCT-116 cells assessed as viable cells at 4 uM measured after 2 days in presence of irinotecan by AnnexinV-FITC/PI staining based analysis (reference value: 72.8%); assay type: functional; details: HCT-116, 48 h, time 2 day, read-out: Activity
[6] = Oral bioavailability in Balb/C mouse at 10 mg/kg measured upto 48 hrs by LC-MS/MS analysis; assay type: ADME, organism-based; details: in vivo
[7] = Apparent permeability of compound across apical to basal membrane in human Caco-2 cells; assay type: ADME, cell-based
SW-620 [8] = assay: Synergistic antiproliferative activity against human SW620 cells assessed as fold increase in irinotecan IC50 at 100 nM measured after 6 days by MTT assay; assay type: functional; details: time 6 day
HCT-116 [9] = assay: Induction of apoptosis in human HCT-116 cells assessed as viable cells at 2 uM measured after 2 days by AnnexinV-FITC/PI staining based analysis (reference value: 72.8%); assay type: functional; details: HCT-116, 48 h, time 2 day, read-out: Activity
HCT-116 [10] = assay: Induction of DNA damage in human HCT-116 cells assessed as decrease in gammaH2AX fluorescence intensity measured after 6 hrs in presence of irinotecan by fluorescence microscopic analysis; assay type: functional, cell-based; details: dose 0.5-2 µM
[11] = biological target: T1, Serine-protein kinase ATM (Homo sapiens, UniProt Q13315); assay: Inhibition of ATM (unknown origin) assessed as remaining activity at 0.01 uM preincubated with compound for 30 mins followed by substrate addition and measured after 2 hrs by HTRF method relative to control; details: time 2.5 hrs
HCT-116 [12] = assay: Induction of apoptosis in human HCT-116 cells assessed as early apoptotic cells at 2 uM measured after 2 days by AnnexinV-FITC/PI staining based analysis (reference value: 14.4%); assay type: functional; details: time 2 day
HCT-116 [13] = assay: Induction of apoptosis in human HCT-116 cells assessed as necrotic cells at 4 uM measured after 2 days in presence of irinotecan by AnnexinV-FITC/PI staining based analysis (reference value: 0.64%); assay type: functional; details: time 2 day
[14] = Half life in Balb/C mouse at 10 mg/kg,po measured upto 48 hrs by LC-MS/MS analysis; assay type: ADME, organism-based; details: in vivo
SW-620 [15] = assay: Antiproliferative activity against human SW620 cells assessed as reduction in cell viability incubated for 6 days by MTT assay; assay type: functional, cell-based; details: SW-620, 144 h
[16] = Metabolic stability in human liver microsomes assessed as half life at 1 uM in presence of NADPH-regenerating system by LC-MS/MS analysis; assay type: ADME, Microsome
HCT-116 [17] = assay: Induction of apoptosis in human HCT-116 cells assessed as late apoptotic cells at 1 uM measured after 2 days in presence of irinotecan by AnnexinV-FITC/PI staining based analysis (reference value: 12.2%); assay type: functional; details: time 2 day
[18] = Clearance in Balb/C mouse at 10 mg/kg,po measured upto 48 hrs by LC-MS/MS analysis; assay type: ADME, organism-based; details: in vivo
HCT-116 [19] = assay: Induction of apoptosis in human HCT-116 cells assessed as early apoptotic cells at 2 uM measured after 2 days in presence of irinotecan by AnnexinV-FITC/PI staining based analysis (reference value: 14.4%); assay type: functional; details: time 2 day
[20] = biological target: T1, Serine-protein kinase ATM; assay: Inhibition of ATM (unknown origin) preincubated with compound for 30 mins followed by substrate addition and measured after 2 hrs by HTRF method
HCT-116 [21] = assay: Induction of cell cycle arrest in human HCT-116 cells assessed as loss in accumulation of cells at G0/G1 phase at 1 to 4 uM measured after 48 hrs in presence of irinotecan by propidium iodide staining based flow cytometry analysis; assay type: functional; details: dose 1-4 µM
HCT-116 [22] = assay: Induction of apoptosis in human HCT-116 cells assessed as necrotic cells at 4 uM measured after 2 days by AnnexinV-FITC/PI staining based analysis (reference value: 0.64%); assay type: functional; details: time 2 day
SW-620 [23] = assay: Synergistic inhibition of colony formation in human SW620 cells assessed as fold increase in irinotecan IC50 at 200 nM preincubated for 1 hr followed by irinotecan addition and measured after 1 week by crystal violet staining based […] assay; assay type: functional; details: time 169 hrs
HCT-116 [24] = assay: Induction of apoptosis in human HCT-116 cells assessed as necrotic cells at 2 uM measured after 2 days in presence of irinotecan by AnnexinV-FITC/PI staining based analysis (reference value: 0.64%); assay type: functional; details: time 2 day
HCT-116 [25] = assay: Induction of apoptosis in human HCT-116 cells assessed as late apoptotic cells at 4 uM measured after 2 days in presence of irinotecan by AnnexinV-FITC/PI staining based analysis (reference value: 12.2%); assay type: functional; details: time 2 day
HCT-116 [26] = assay: Induction of apoptosis in human HCT-116 cells assessed as necrotic cells at 2 uM measured after 2 days by AnnexinV-FITC/PI staining based analysis (reference value: 0.64%); assay type: functional; details: time 2 day
HCT-116 [27] = assay: Induction of apoptosis in human HCT-116 cells assessed as late apoptotic cells at 4 uM measured after 2 days by AnnexinV-FITC/PI staining based analysis (reference value: 12.2%); assay type: functional; details: time 2 day
[28] = Metabolic stability in human liver microsomes assessed as clearance at 1 uM in presence of NADPH-regenerating system by LC-MS/MS analysis; assay type: ADME, Microsome
MCF7 [29] = assay: Synergistic antiproliferative activity against human MCF7 cells assessed as combination index at […] measured after 6 days in presence irinotecan by MTT assay; assay type: functional; details: dose lower 100 µM; time 6 day
HCT-116 [30] = assay: Induction of cell cycle arrest in human HCT-116 cells assessed as increase in accumulation of cells at G2/M phase at 1 to 4 uM measured after 48 hrs in presence of irinotecan by propidium iodide staining based flow cytometry analysis; assay type: functional; details: dose 1-4 µM
[31] = biological target: DNA-dependent protein kinase catalytic subunit (Homo sapiens, UniProt P78527); assay: Inhibition of DNA-PK (unknown origin) in presence of [gamma33P-ATP] by scintillation counting method
HCT-116 [32] = assay: Induction of apoptosis in human HCT-116 cells assessed as early apoptotic cells at 4 uM measured after 2 days by AnnexinV-FITC/PI staining based analysis (reference value: 14.4%); assay type: functional; details: time 2 day
HCT-116 [33] = assay: Induction of DNA damage in human HCT-116 cells assessed as reduction in p21 phosphorylation at T145 residue at 0.5 to 2 uM measured after 4 hrs by Western blot analysis; assay type: functional, cell-based; details: dose 0.5-2 µM
HCT-116 [34] = assay: Induction of apoptosis in human HCT-116 cells assessed as late apoptotic cells at 1 uM measured after 2 days by AnnexinV-FITC/PI staining based analysis (reference value: 12.2%); assay type: functional; details: time 2 day

T1 sequence (Q13315 whole entry): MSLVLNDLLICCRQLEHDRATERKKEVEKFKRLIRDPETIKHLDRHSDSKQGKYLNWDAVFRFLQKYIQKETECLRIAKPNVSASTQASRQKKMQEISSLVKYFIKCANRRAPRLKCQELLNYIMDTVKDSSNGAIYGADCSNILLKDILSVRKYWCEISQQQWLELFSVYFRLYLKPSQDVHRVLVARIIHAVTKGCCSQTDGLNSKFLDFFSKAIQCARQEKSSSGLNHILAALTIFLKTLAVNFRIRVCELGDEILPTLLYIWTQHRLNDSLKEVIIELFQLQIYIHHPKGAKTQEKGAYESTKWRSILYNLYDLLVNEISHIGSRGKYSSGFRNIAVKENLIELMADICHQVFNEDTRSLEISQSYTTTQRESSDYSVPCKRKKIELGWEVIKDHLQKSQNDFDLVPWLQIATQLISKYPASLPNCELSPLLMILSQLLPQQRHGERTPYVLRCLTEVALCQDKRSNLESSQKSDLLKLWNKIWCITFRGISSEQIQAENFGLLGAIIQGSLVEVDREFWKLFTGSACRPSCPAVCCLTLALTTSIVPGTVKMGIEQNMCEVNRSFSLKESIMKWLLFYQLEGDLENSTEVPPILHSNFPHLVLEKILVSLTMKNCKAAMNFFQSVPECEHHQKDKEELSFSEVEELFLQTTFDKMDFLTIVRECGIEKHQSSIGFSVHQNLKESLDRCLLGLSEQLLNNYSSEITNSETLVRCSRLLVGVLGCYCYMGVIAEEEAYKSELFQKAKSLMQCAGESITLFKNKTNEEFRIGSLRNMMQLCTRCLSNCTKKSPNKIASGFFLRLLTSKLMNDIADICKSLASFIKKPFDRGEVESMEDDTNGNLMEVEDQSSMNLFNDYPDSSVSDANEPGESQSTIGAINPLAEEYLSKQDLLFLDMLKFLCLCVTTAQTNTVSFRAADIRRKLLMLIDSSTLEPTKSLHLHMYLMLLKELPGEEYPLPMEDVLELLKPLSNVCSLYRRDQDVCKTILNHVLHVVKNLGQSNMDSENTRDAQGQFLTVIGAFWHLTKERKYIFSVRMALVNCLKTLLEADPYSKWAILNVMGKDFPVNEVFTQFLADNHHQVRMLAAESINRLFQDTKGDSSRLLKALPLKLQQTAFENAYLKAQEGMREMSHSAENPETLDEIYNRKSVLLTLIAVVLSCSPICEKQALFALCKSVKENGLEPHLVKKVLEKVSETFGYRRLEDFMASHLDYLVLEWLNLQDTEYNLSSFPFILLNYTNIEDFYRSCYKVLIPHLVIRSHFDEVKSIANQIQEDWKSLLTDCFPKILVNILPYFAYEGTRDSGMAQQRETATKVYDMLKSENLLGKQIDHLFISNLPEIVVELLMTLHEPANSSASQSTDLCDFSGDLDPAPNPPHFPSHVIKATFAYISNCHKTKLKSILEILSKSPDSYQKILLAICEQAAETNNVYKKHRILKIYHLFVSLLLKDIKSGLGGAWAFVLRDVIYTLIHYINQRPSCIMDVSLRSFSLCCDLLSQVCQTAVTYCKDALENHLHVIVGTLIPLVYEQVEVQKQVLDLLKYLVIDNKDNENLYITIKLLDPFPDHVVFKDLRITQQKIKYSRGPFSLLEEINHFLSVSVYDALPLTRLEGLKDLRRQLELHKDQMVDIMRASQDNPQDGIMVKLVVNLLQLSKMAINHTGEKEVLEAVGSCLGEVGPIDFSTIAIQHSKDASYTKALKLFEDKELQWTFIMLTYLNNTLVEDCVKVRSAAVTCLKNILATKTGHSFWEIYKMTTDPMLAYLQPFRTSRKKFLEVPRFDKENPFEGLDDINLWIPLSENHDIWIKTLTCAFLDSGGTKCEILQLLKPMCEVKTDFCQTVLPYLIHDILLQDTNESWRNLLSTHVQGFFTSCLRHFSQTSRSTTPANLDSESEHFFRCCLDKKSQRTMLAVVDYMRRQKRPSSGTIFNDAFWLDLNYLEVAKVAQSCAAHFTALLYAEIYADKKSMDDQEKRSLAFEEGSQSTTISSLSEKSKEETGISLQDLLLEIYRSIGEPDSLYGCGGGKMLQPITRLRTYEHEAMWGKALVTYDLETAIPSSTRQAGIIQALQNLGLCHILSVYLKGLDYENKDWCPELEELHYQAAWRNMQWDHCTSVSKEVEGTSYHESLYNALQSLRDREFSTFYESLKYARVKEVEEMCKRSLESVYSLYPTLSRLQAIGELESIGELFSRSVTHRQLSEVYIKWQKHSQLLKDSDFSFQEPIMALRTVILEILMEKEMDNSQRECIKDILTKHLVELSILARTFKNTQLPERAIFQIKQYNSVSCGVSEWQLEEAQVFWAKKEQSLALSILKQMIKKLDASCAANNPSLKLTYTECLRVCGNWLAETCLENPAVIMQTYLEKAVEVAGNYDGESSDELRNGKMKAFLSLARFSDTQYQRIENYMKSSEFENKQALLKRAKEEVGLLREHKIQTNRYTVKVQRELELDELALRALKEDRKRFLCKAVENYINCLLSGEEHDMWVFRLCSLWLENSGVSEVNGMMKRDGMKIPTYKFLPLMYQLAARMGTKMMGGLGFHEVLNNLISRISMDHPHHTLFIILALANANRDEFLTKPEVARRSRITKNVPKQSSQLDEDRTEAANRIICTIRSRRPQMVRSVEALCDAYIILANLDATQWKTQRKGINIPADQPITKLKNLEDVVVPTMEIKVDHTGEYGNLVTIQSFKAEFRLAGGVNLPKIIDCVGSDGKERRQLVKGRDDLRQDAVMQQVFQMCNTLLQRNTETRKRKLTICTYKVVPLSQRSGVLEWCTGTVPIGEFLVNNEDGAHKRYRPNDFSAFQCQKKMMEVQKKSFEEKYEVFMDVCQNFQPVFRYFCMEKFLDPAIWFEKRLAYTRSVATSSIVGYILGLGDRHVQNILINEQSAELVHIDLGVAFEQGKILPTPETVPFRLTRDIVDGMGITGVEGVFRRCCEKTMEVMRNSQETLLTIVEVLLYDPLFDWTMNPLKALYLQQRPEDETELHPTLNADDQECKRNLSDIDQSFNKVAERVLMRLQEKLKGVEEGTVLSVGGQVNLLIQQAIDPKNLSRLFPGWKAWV

CC(C)NC(=O)N(C)c1cnc2ccc(-c3ccc(OCCCN4CCCCC4)nc3)cc2n1
Activity (HCT-116 [1]): 55.7% | IC50 (HCT-116 [2]): 1.69 nM | fold change (FC) (MCF7 [3]): 5.2 | CI (MCF7 [4]): <1 | viability at 4 µM (HCT-116 [5]): 7.37% | bioavailability [6]: 107% | Papp A→B [7]: 1.02 ×10⁻⁶ cm/s | fold change (FC) (SW-620 [8]): 2.8 | viability at 2 µM (HCT-116 [9]): 67.3% | Activity (HCT-116 [10]): Active | Activity [11]: 2% | Activity (HCT-116 [12]): 17.6% | Activity (HCT-116 [13]): 1.73% | t1/2 [14]: 3.37 h | IC50 (SW-620 [15]): > 9000 nM | half-life at 1 µM [16]: 12.8 h | Activity (HCT-116 [17]): 30.4% | CL/F [18]: 12.2 mL/min/kg | Activity (HCT-116 [19]): 51.3% | IC50 [20]: 1.15 nM | Activity (HCT-116 [21]): Active | Activity (HCT-116 [22]): 0.6% | fold change (FC) (SW-620 [23]): 11.5 | Activity (HCT-116 [24]): 1.67% | Activity (HCT-116 [25]): 35.2% | Activity (HCT-116 [26]): 0.92% | Activity (HCT-116 [27]): 13% | CLH [28]: 1.8 mL/min/g | CI (MCF7 [29]): <1 | Activity (HCT-116 [30]): Active | IC50 [31]: 420 nM | Activity (HCT-116 [32]): 18.1% | Activity (HCT-116 [33]): Active | Activity (HCT-116 [34]): 12.6%
